Measured values as given in patent publication US20260335472A1, “MULTIFUNCTIONAL COMPOUND CORE FOR ACTIVE AGENTS AND USES THEREOF” (THE UNIVERSITY OF NORTH CAROLINA AT CHAPEL HILL, priority 2023, published 2026).

Key:
tumor [1] = experiment: PET scan imaging, tumor uptake of bifunctional (Sar cage) core compound; type: in vivo; conditions: mouse, FIG. 5
PC3-PSMA model = experiment: PET scan imaging, tumor uptake in rodents; type: in vivo, mouse
[2] = PET scan imaging, salivary gland uptake in non-human primate; type: in vivo; conditions: 24 hours post injection, relative to 64Cu-PSMA-617, FIG. 1 panel B
Method: (§1) Indeed, SGs uptake of ^64Cu-NOTA-UNC-PSMA2 is only 1/10th of ^64Cu-PSMA-617 at 24 h post-injection in the NHP study (FIG. 1, panel B).

tumor [3] = experiment: Imaging, tumor uptake in non-human primate models; type: in vivo; conditions: non-human primate (NHP) models, times higher than PSMA-617
Method: as §1

tumor [4] = experiment: PET scan imaging of 68Ga-PSMA-617 tumor uptake; type: in vivo; conditions: rodent models, PET scan image of a mouse, FIG. 2 panel A
[5] = SPECT/CT imaging, gland uptake in a human subject; type: in vivo
[6] = SPECT/CT imaging, SG uptake in rodent models; type: in vivo

Structure (SMILES): N#CC1CCCN1C(=O)CNC(=O)c1ccnc2ccc(OCCCN3CCN(C(=O)CCOCCOCCNC(=O)NC45CNCCNCC(NC(=O)NCCOCCOCCC(=O)N6CCN(CCCOc7ccc8nccc(C(=O)NCC(=O)N9CCCC9C#N)c8c7)CC6)(CNCCNC4)CNCCNC5)CC3)cc12 (stereo not shown)
- uptake into a tumor (in words) (tumor [1]): Uptake of this compound into a tumor

Structure (SMILES): O=C(O)CC[C@H](NC(=O)N[C@@H](CCCCNC(=O)[C@H](Cc1ccc2ccccc2c1)NC(=O)C1CCC(CNC(=O)CSCCS(=O)(=O)CCOCCn2c(=O)n(CCOCCS(=O)(=O)CCSCC(=O)NC[C@H]3CC[C@H](C(=O)N[C@@H](Cc4ccc5ccccc5c4)C(=O)NCCCC[C@H](NC(=O)N[C@@H](CCC(=O)O)C(=O)O)C(=O)O)CC3)c(=O)n(CCOCCS(=O)(=O)CCSCC(=O)Nc3ccc(CC4CN(CC(=O)O)CCN(CC(=O)O)CCN4CC(=O)O)cc3)c2=O)CC1)C(=O)O)C(=O)O (stereo partly shown) [^64Cu-NOTA-UNC-PSMA2, metal not drawn]
- distribution (in words) (PC3-PSMA model; 24 and 48 h post injection, FIG. 1 panel A): persistent as only the tumor demonstrated prominent compound uptake
- tumor uptake (in words) (PC3-PSMA model; mouse, PC3-PSMA model, PET scan image, FIG. 1 panel A): high and persistent tumor uptake
- tumor uptake compared to PSMA-617 (PC3-PSMA model; rodent models, times higher than PSMA-617): 2-3 times
- SG uptake relative to 64Cu-PSMA-617 [2]: 1/10
- tumor uptake compared to PSMA-617 (tumor [3]): 2-3 times

Structure (SMILES): O=C(O)CC[C@H](NC(=O)N[C@@H](CCCCNC(=O)[C@H](Cc1ccc2ccccc2c1)NC(=O)[C@H]1CC[C@H](CNC(=O)CN2CCN(CC(=O)O)CCN(CC(=O)O)CCN(CC(=O)O)CC2)CC1)C(=O)O)C(=O)O.[Ga+3] [^68Ga-PSMA-617]
- tumor uptake profile (in words) (tumor [4]): clean tumor uptake profile

Structure (SMILES): O=C(O)CC[C@H](NC(=O)N[C@@H](CCCCNC(=O)[C@H](Cc1ccc2ccccc2c1)NC(=O)[C@H]1CC[C@H](CNC(=O)CN2CCN(CC(=O)O)CCN(CC(=O)O)CCN(CC(=O)O)CC2)CC1)C(=O)O)C(=O)O.[Lu+3] [^177Lu-PSMA-617]
- SG uptake (in words) ([5]; SPECT/CT imaging): prominent SG uptake
- glands uptake (in words) ([5]; SPECT/CT, 24 hours post injection, FIG. 2 panel B): high glands uptake
- SG uptake (in words) [6]: prominent SG uptake
